Earlier results, collected in patent US9988396B2, “Oxaziridine compound and production method thereof” (SEED RESEARCH INSTITUTE CO., LTD., priority 2016, dated 2018).

What was measured:
[1] = tested on: pathogens of candidiasis; conditions: statement in background, from patent document 1 (WO2015/030197)
[2] = tested on: HepG2 liver cancer cell
[3] = tested on: PANC-1 pancreas cancer cell

CC=C(Cc1ccccc1)C12CC(O)CCN1O2 (stereo not drawn) [Kakeromycin]
antifungal activity / antibacterial activity against pathogens of candidiasis [1]: strong antibacterial activity
cytotoxicity [2]: shows cytotoxicity
cytotoxicity [3]: shows cytotoxicity
